We go through 2 compounds from patent publication US11452703B2, “Methods and compositions for reducing adipocyte numbers” (Peregrine Ophthalmic PTE LTD., priority 2020, dated 2022).

One series relates to C/EBPα. In words: Quantitative real-time PCR of C/EBPα mRNA in adipocytes. The class given is cell-based. The conditions noted are these: adipocytes 9 or 15 days post differentiation, vs vehicle control. How it is done: (§1) Adipose-derived mesenchymal stem cells, i.e., pre-adipocytes, were cultured and differentiated into adipocytes following established protocols. Briefly, adipose derived mesenchymal stem cells were obtained from ATCC (PCS500011™, Manassas, Va.) and cultured in Mesenchymal Stem Cell Basal Medium (ATCC® PCS500030™) with Growth Kit (ATCC® PCS500040™) at 37° C. in 5% CO2. To induce differentiation, ADMSC cultures were grown to 70% to 80% confluence and the medium replaced by adipogenic differentiation medium (StemPro® Adipogenesis Differentiation Kit; Gibco Life Technologies™, USA). The medium was changed twice weekly.
(§2) Gene expression in the treated and untreated adipocytes was examined by quantitative real-time PCR analysis. Total RNA from adipocytes was isolated using the RNAzol® RT reagent (Molecular Research Center, Inc., Cincinnati, Ohio, USA) and reverse-transcribed using the QuantiTect reverse transcription kit (Qiagen Inc., Chatsworth, Calif., USA) according to the supplier's instructions. Messenger RNA expression of adipogenesis-promoting genes C/EBPα, PPARγ, and LPL were determined by quantitative analysis of real-time PCR (RT-PCR) using FastStart Universal SYBR Green Master Mix (Roche Applied Science) in a LightCycler® 480 Real-Time PCR System (Roche Applied Science, Germany). […]
(In general: Real-time PCR tracks product formation cycle by cycle.)

For the next series, the system named is PPARγ. The series can be described thus: Quantitative real-time PCR of PPARγ mRNA in adipocytes. Format: cell-based. The conditions noted are these: adipocytes 9 or 15 days post differentiation, vs vehicle control. The method, then:
as §1, §2

The test system of a further series is LPL. The series can be described thus: Quantitative real-time PCR of LPL mRNA in adipocytes. Format: cell-based. The conditions noted are these: adipocytes 9 or 15 days post differentiation, vs vehicle control. How it is done: as §1, §2
For another series, the system named is inguinal fat pad. In words: In vivo fat reduction by direct injection into inguinal fat pads. The conditions noted are these: mice, single injection 100 μL containing 100 μg latanoprost, 7 days post-injection. How it is done:
The ability of liposome-encapsulated latanoprost to reduce fat deposits in vivo was tested by direct injection into inguinal fat pads of mice.
Each of three animals were injected into one inguinal fat pad with 100 μL of vehicle, 100 μL containing 100 μg latanoprost, 100 μL of EggPC-latanoprost containing 100 μg latanoprost, or 100 μL of POPC-latanoprost containing 100 μg latanoprost. Seven days later, the mice were sacrificed and the weights of both the injected inguinal fat pad and the contralateral un-injected fat pad were measured.

Series [1] relates to intraconal fat deposit adipocytes. In words: Short-term (7-day) adipocyte counts in intraconal fat after retrobulbar injection. The class given is in vivo. Conditions: rat, single retrobulbar injection, 25 μg/eye (DCA 2000 μg/eye), day 7 post-injection. How it is done: Free latanoprost, EggPC-latanoprost, and POPC-latanoprost were each introduced by retrobulbar injection into the orbit of the rat eye to ascertain its effect on intraconal fat deposits. As a positive control, deoxycholic acid (DCA; KYBELLA®) was also injected. DCA has been approved by the United States Food and Drug Administration for reducing fat cells in the chin.
Six rats were injected in a single eye for each of treatment. The contralateral eye of each animal was not injected, thus serving as a negative control.
The number of adipocytes present in the intraconal fat deposit at day 7 post-injection was counted by computer analysis of histopathology images and compared to the number of adipocytes in the contralateral un-injected eye. The results are shown in FIGS. 4A-4F and in Table 2 below.

For series [2], the system named is intraconal orbital fat adipocytes. In words: 21-day retrobulbar injection into orbital fat, histology and image analysis. The conditions noted are these: rat; for Adipocyte Cell Counts, Treated Eyes Mean ± SEM / Area of Retrobulbar Fat complex, Treated Eyes Mean ± SEM / Mean Density of Adipocytes, Treated Eyes Mean ± SEM: 25 μg/eye (DCA 2000 μg/eye), day 21, n = 6; for Adipocyte Cell Counts, Percentage Decrease treated vs naïve control eyes / Area of Retrobulbar Fat complex, Percentage Increase treated vs naïve control eyes / Mean Density of Adipocytes, Percent Increase treated vs naïve control eyes: day 21. Format: in vivo, Lewis rats (Rattus norvegicus). Set-up: Area of Retrobulbar Fat complex, Percentage Increase treated vs naïve control eyes / Mean Density of Adipocytes, Percent Increase treated vs naïve control eyes / Adipocyte Cell Counts, Percentage Decrease treated vs naïve control eyes: concentration or dose not given beside the values. The text has this: Free latanoprost, EggPC-latanoprost, POPC-latanoprost, and DCA were each introduced by retrobulbar injection into the orbit of the rat eye to ascertain its effect on intraconal fat deposits over a three-week period.
(§3) Twenty-four male Lewis rats (Rattus norvegicus) at 8-10 weeks of age were used in the study. Their weights at the start of the study ranged from 250-300 g.
(§4) Six rats were assigned to each of four groups at least one day prior to drug dosing using a selection designed to achieve similar group mean body weights. Animals in Groups A-D were weighed prior to injection and weekly thereafter.
(§5) Rats were anesthetized and a 30-gauge needle was used to inject the drugs into the retrobulbar space of the right orbit of each animal. The left orbit served as a contra-lateral control. All rats awoke from anesthesia without complication.
On Day 21, 3 weeks after injection, rats were euthanized by cardiac perfusion with 4% paraformaldehyde. After perfusion, each rat was decapitated and the head was placed in a 10% formalin solution for 2 days. Each orbit was carefully exenterated subperiosteally with a scalpel and placed back in 10% formalin solution for 1 day (6 orbits from 3 animals per group) and the remaining orbits were placed back in a 10% formalin solution for 2 weeks. Exenterated orbits were embedded in paraffin and cut into 5 μm sections. Sections centered around the intraconal fat and optic nerve were stained with hematoxylin-eosin for histologic examination by a trained ocular pathologist and a second observer in a blinded fashion.
Sections were examined histologically for optic nerve injury, atrophy of orbital fat, adipocyte density, and cytotoxicity evidenced by, e.g., adipocytolysis, blood vessel injury and repair, neutrophilic inflammation, lysis of locally present neutrophils, hemorrhage, lipid lake formation, and neovascularization.
The intraconal fat of the orbital sections were examined under light microscopy and images scanned for further analysis. The areas of intraconal orbital fat were cropped and the adipocytes counted using ImageJ software (Rasband W.S., US National Institutes of Health, Bethesda, Md.) to determine adipocyte density using a previously described method. See Park et al., 2011, Jpn. J. Ophthalmol. 55:22-27. The density of adipocytes in the intraconal orbital fat area was calculated and compared between groups via a 2-tailed Student t test.
Adipocyte size heterogeneity was analyzed in the cropped images of the intraconal fat light using a maximally stable extremal regions-based segmentation algorithm implemented in MATLAB (Mathworks, Natick, Mass.). A maximally stable extremal region algorithm entitled VL_FEAT was used to find extremal regions with parameters of delta=1, maximum variation=0.2, minimum diversity=0.5. Maximally stable extremal region-determined regions with sizes less than 10 pixels or eccentricity larger than 0.9 was discarded as false positives. The mean segmented adipocyte size for each image was calculated and the groups were compared using Student t test.

Series [3] is described as follows: Intraocular pressure pre- and 3-week post retrobulbar injection. Format: in vivo, Lewis rats (Rattus norvegicus). The conditions noted are these: rat, pre-injection vs 3 weeks post-injection.
Excerpt: as §3, §4, §5
Intraocular pressure (TOP) measurements were taken pre- and 3-week post-injection of each eye of all 24 rats.

For the compound `CC(C)OC(=O)CCC/C=C\C[C@@H]1[C@@H](CC[C@@H](O)CCc2ccccc2)[C@H](O)C[C@@H]1O` [latanoprost], the “mRNA expression of adipogenesis-promoting gene C/EBPα” value with C/EBPα was “suppressed expression”. Besides, the “mRNA expression of adipogenesis-promoting gene PPARγ” value in the series with PPARγ is recorded as “suppressed expression”. Besides, the “mRNA expression of adipogenesis-promoting gene LPL” value in the series with LPL was “suppressed expression”. The “weight reduction of injected inguinal fat pad as compared to un-injected contralateral fat pad” value with inguinal fat pad was “did not result in any weight reduction”. Moreover, in series [1], the “Adipocyte cell count reduction (percent reduction in total adipocyte number in intraconal fat deposit vs contralateral un-injected eye)” value came out at 56.52%. For the same compound, the “heterogeneity among adipocytes in the intraconal space as compared to naïve contra-lateral control orbits” value in series [2] (orbital injection, day 21, computer-aided morphological analysis) is recorded as “more heterogeneity”. Further, in series [2] (retrobulbar injection), the “Adipocyte Cell Counts, Treated Eyes Mean ± SEM” value turned out to be 108 ± 52; the “Area of Retrobulbar Fat complex, Treated Eyes Mean ± SEM” value is 0.131 ± 0.089 mm^2; the “Mean Density of Adipocytes, Treated Eyes Mean ± SEM” value came to 8574.68 ± 1456.73 cells/mm^3; the “Adipocyte Cell Counts, Percentage Decrease treated vs naïve control eyes” value was found to be 61%. In series [2] (retrobulbar injection), the “Area of Retrobulbar Fat complex, Percentage Increase treated vs naïve control eyes” value is given as 283% and the “Mean Density of Adipocytes, Percent Increase treated vs naïve control eyes” value was determined as 58%. Further, the “change in the area of the retrobulbar fat complex after injection (significance)” value in series [2] (retrobulbar injection, day 21, quantitative image analysis) was “significant increases”. Moreover, the “Intraocular pressure (IOP) in injected eyes” value in series [3] is “remained stable”.

`C[C@H](CCC(=O)O)[C@H]1CC[C@H]2[C@@H]3CC[C@@H]4C[C@H](O)CC[C@]4(C)[C@H]3C[C@H](O)[C@]12C` [DCA, deoxycholic acid]: the “Adipocyte cell count reduction (percent reduction in total adipocyte number in intraconal fat deposit vs contralateral un-injected eye)” value in series [1] amounted to 39.04%. In addition, in series [2] (retrobulbar injection), the “Adipocyte Cell Counts, Treated Eyes Mean ± SEM” value is recorded as 179 ± 47; the “Area of Retrobulbar Fat complex, Treated Eyes Mean ± SEM” value was found to be 0.167 ± 0.093 mm^2; the “Mean Density of Adipocytes, Treated Eyes Mean ± SEM” value was determined as 7606.21 ± 754.39 cells/mm^3; the “Adipocyte Cell Counts, Percentage Decrease treated vs naïve control eyes” value is on record as 37%. Besides, in series [2] (retrobulbar injection), the “Area of Retrobulbar Fat complex, Percentage Increase treated vs naïve control eyes” value stood at 208% and the “Mean Density of Adipocytes, Percent Increase treated vs naïve control eyes” value is recorded as 35%. The “Intraocular pressure (IOP) in injected eyes” value in series [3] was “significant increase”.
